Measured values from ChEMBL document CHEMBL1143861, “Chemical modulators of heat shock protein 70 (Hsp70) by sequential, microwave-accelerated reactions on solid phase” (Bioorg Med Chem Lett, 2008).
Calls of active or inactive are those of the source. The calls are words filed in the database; no cut-off is given here.

Key:
[1] = Activation of bovine Hsp70 ATPase activity; parameters: species or system Bos taurus
[2] = (§1) Activation of Escherichia coli DnaK ATPase activity
[3] = Inhibition of bovine Hsp70 ATPase activity; parameters: species or system Bos taurus
[4] = Inhibition of Escherichia coli DnaK ATPase activity
[5] = Activity against bovine Hsp70 ATPase activity; parameters: species or system Bos taurus
[6] = Activity against Escherichia coli DnaK ATPase activity
[7] = system: Escherichia coli; assay: as §1

Row | SMILES | EC50 [5] [µM] | EC50 [6] [µM] | further results
1 | CCOC(=O)C1=C(C)N(CCCC(=O)N[C@H](CC(=O)NCCC(=O)O)Cc2cccc3ccccc23)C(=O)NC1c1ccc(Br)cc1 (some centres undefined) |  |  | EC50 [1]: 179 µM; EC50 [2]: 190 µM
2 | CCOC(=O)C1=C(C)N(CCCC(=O)N[C@@H](CCc2ccccc2)CC(=O)N[C@@H](CCCCN)CC(=O)NCCC(=O)O)C(=O)NC1c1ccc(Br)cc1 (some centres undefined) |  |  | EC50 [3]: 265 µM; EC50 [4]: 325 µM
3 | CCOC(=O)C1=C(C)N(CCCC(=O)N[C@H](CC(=O)N[C@H](CC(=O)NCCC(=O)O)c2ccccc2)CC(C)C)C(=O)NC1c1ccc(Br)cc1 (some centres undefined) | > 400 | > 400 | 
4 | CCOC(=O)C1=C(C)N(CCCC(=O)NCCC(=O)NCCC(=O)O)C(=O)NC1c1ccc(Br)cc1 (centres undefined) | > 400 | > 400 | 
5 | CCOC(=O)C1=C(C)N(CCCC(=O)O)C(=O)NC1c1ccc(Br)cc1 (centres undefined) | > 400 | > 400 | 
6 | CCOC(=O)C1=C(C)N(CCCC(=O)N[C@H](CC(=O)NCCC(=O)O)CC(C)C)C(=O)NC1c1ccc(Br)cc1 (some centres undefined) | > 400 | > 400 | 
7 | CCOC(=O)C1=C(C)N(CCCC(=O)N[C@H](CC(=O)N[C@H](CC(=O)NCCC(=O)O)CC(C)C)CC(C)C)C(=O)NC1c1ccc(Br)cc1 (some centres undefined) | > 400 | > 400 | 
8 | CCOC(=O)C1=C(C)N(CCCC(=O)N[C@H](CC(=O)N[C@H](CC(=O)NCCC(=O)O)Cc2cccc3ccccc23)C(C)C)C(=O)NC1c1ccc(Br)cc1 (some centres undefined) |  |  | EC50 [1]: 255 µM; Activity [7]: inactive
9 | CCOC(=O)C1=C(C)N(CCCC(=O)N[C@@H](CCCCN)CC(=O)N[C@@H](CCc2ccccc2)CC(=O)NCCC(=O)O)C(=O)NC1c1ccc(Br)cc1 (some centres undefined) |  |  | EC50 [3]: 105 µM; EC50 [4]: 107 µM
10 | CCOC(=O)C1=C(C)N(CCCC(=O)OC)C(=O)NC1c1ccc(Br)cc1 (centres undefined) |  |  | EC50 [1]: 213 µM; Activity [7]: inactive
11 | CCOC(=O)C1=C(C)N(CCCC(=O)N[C@H](CC(=O)NCCC(=O)O)C(C)C)C(=O)NC1c1ccc(Br)cc1 (some centres undefined) | > 400 | > 400 | 
12 | CCOC(=O)C1=C(C)N(CCCC(=O)N[C@@H](CCc2ccccc2)CC(=O)NCCC(=O)O)C(=O)NC1c1ccc(Br)cc1 (some centres undefined) |  |  | EC50 [1]: 190 µM; Activity [7]: inactive
13 | CCOC(=O)C1=C(C)N(CCCC(=O)N[C@H](CC(=O)NCCC(=O)O)c2ccccc2)C(=O)NC1c1ccc(Br)cc1 (some centres undefined) | > 400 | > 400 | 
14 | CCOC(=O)C1=C(C)N(CCCC(=O)N[C@@H](CCCCN)CC(=O)N[C@H](CC(=O)NCCC(=O)O)[C@@H](C)CC)C(=O)NC1c1ccc(Br)cc1 (some centres undefined) |  |  | EC50 [1]: 352 µM; Activity [7]: inactive
15 | CCOC(=O)C1=C(C)N(CCCC(=O)N[C@@H](CCCCN)CC(=O)NCCC(=O)O)C(=O)NC1c1ccc(Br)cc1 (some centres undefined) | > 400 | > 400 | 
16 | CCOC(=O)C1=C(C)N(CCCC(=O)NCCC(=O)NCCC(=O)NCCC(=O)O)C(=O)NC1c1ccc(Br)cc1 (centres undefined) | > 400 | > 400 | 
17 | CCOC(=O)C1=C(C)N(CCCC(=O)N[C@H](CC(=O)NCCC(=O)O)[C@@H](C)CC)C(=O)NC1c1ccc(Br)cc1 (some centres undefined) | > 400 | > 400 | 
